Experimental data: patent publication US9943499B2, “Lipase inhibitors for the treatment of pancreatitis and organ failure” (priority 2011, dated 2018)
“Also recorded” adds a separate entry of the source.

Key:
[1] = test system: mouse melanoma model; details: Carvalho et al., Int. J. Cancer 2008; cited from earlier work
[2] = test system: pancreatic acini; assay: Acinar-adipocyte co-culture; type: cell-based, mice
Excerpt: Harvesting cells: Primary acinar cells from wild type mice (C57B6) were harvested and used as described previously. Viability, confirmed by trypan blue exclusion, was >95%. […] These were used in the individual experiments. Data presented is representative of 3 or more experiments. Acinar-adipocyte co-culture: This was done in 12-well companion plates with cell culture inserts (FIG. 14). […] Serum and medium cytokine assays: These were done for TNF-α, MCP-1, IL-6, resistin, and adiponectin using the fluorescence-based capture sandwich immunoassay based on the Luminex FlowMetrix system (Luminex). The Milliplex Mouse Adipokine Panel (7-Plex) 1 kit from Millipore (Billerica, Mass.) was used. Samples were analyzed using the Bio-Plex suspension array system, which included a fluorescent reader and Bio-Plex Manager analytical software (Bio-Rad Laboratories, Hercules, Calif.) at the University of Pittsburgh, Cancer Institute Luminex Core Facility. Visceral fat triglyceride composition: The visceral fat triglyceride composition analysis was done at Kennedy Krieger Institute (Baltimore, Md.). Briefly, total lipids were extracted by the method of Folch. […] The fatty acids were derivatized and analyzed by GCMS as their pentafluorbenzylbromide esters. ATP levels, cytochrome C release, and % LDH leakage were measured as previously described. Apoptosis was measured by active caspase-3 [western blotting, activity assays (Enzcheck, Invitrogen, Carlsbad, Calif.)], TUNEL assays, and Hoechst dye nuclear incorporation (8 mg/ml Hoechst 33342 added for 15 minutes after treatment). […] Results were reported as % of cells with given nuclear changes. These were counter stained with PI (1 μM) to stain necrotic cells (FIG. 7A, B, C) and imaged with a Zeiss Meta dual fluorescence confocal microscope. PI-positive cells were counted as late apoptosis or necrosis. […] Autophagy was studied by western blotting for LC3-I and II. RNA was extracted using Trizol (Invitrogen, Carlsbad, Calif.). mRNA levels of TNF-α, CXCL1, and CXCL2 were measured as described previously using real time-PCR performed on an ABI Prism 7000 Sequence Detection System (Applied Biosystems, Foster City, Calif.) on proprietary Taqman Gene Expression assay reagents (Applied Biosystems). Mitochondrial complex assays and citrate synthase assay were done as described previously.

[3] = test system: ob/ob mice; assay: IL12+18 pancreatitis model; type: in vivo; details: for pancreatic changes: fat necrosis, saponification, peri-fat acinar necrosis, acinar necrosis, hypocalcemia (gross, histologic, biochemical): orlistat 50 mg/kg every 12 hours from 2 hours after induction; for serum SFA levels: orlistat vs IL+Veh group
Excerpt: For histologic evaluation, we retrieved all hematoxylin and eosin-stained slides of the pancreas (1-4 in number) of control and acute pancreatitis patients. A trained pathologist with specific interest in gastrointestinal pathology blinded to demographic and clinical data examined the slides. Adipose tissue with large vessels and nerves not bounded by at least 2 pieces of pancreatic parenchyma was regarded as peripancreatic and excluded. The remaining adipose tissue, necrotic fat (bluish cheesy appearance of adipocytes), necrotic parenchyma, and parenchymal necrosis immediately contiguous to areas of fat necrosis (peri-fat acinar necrosis; PFAN) were additionally measured. All of these were measured as a percentage pixel area of each individual field after excluding dead space using Adobe Photoshop PS. The pixel areas of individual parameters for each case were added. The final number was divided by the number of fields to give a percentage area for that parameter in the section. For patients with more than 1 section, the average of the percentage of intrapancreatic fat for all fields from different sections was chosen as representative for the specimen. Von Kossa (to study fat necrosis, saponification), TUNEL (Terminal deoxynucleotidyl transferase dUTP nick end labeling), and oil red O staining were done per standard protocol.
Serum and medium cytokine assays: These were done for TNF-α, MCP-1, IL-6, resistin, and adiponectin using the fluorescence-based capture sandwich immunoassay based on the Luminex FlowMetrix system (Luminex). The Milliplex Mouse Adipokine Panel (7-Plex) 1 kit from Millipore (Billerica, Mass.) was used. Samples were analyzed using the Bio-Plex suspension array system, which included a fluorescent reader and Bio-Plex Manager analytical software (Bio-Rad Laboratories, Hercules, Calif.) at the University of Pittsburgh, Cancer Institute Luminex Core Facility.
Pancreatitis model: IL12+18 model: There were 8-12 animals in each group. Pancreatitis was induced as described previously in 8-10 week old female ob-ob (B6.V-Lepob/J) mice. Briefly, IL-12 (150 ng/dose/mouse) and IL-18 (750 ng/dose/mouse) were simultaneously given intraperitoneally in 2 doses, 24 hours apart. Orlistat at reduced dose than previously published (50 mg/kg) was administered in vehicle (0.1 ml 30% ethanol) as described previously. First injection of orlistat or vehicle was 2 hours after induction of pancreatitis, and these were then repeated every 12 hours.
Non-esterified fatty acid analysis: The sample was extracted with isopropanol-heptane-hydrochloric acid (1M) (40:10:1, v/v) by vortexing for 25-30 min and allowed to incubate at room temperature for 10 minutes. Heptane (4.0 ml) and water (2.0 ml) were added, and the tubes were thoroughly vortexed for 5 minutes. Tubes were centrifuged at 1000 g for 10 minutes at 4° C., and the upper phase (heptane) is transferred into 13×100 mm screw top tubes and dried in a SpeedVac centrifugal concentrator. Non-esterified fatty acids were derivatized with dimethylamine using the Deoxo-Fluor reagent. Non-esterified fatty acid concentrations are measured by gas chromatography separation with flame ionization detection using heptanoic acid as an internal standard. This derivatization method is very mild and efficient and is selective only towards non-esterified fatty acids so that no separation from a total lipid extract is required.

[4] = test system: Male Wistar rats; assay: Intraductal infusion of glyceryl trilinoleate (GTL) pancreatitis; type: in vivo
Experimental: Experiments were performed using a model, the technique of which is established and well described in rats (1, 2, 4, 7). This involves infusion of agents into the pancreatic duct to cause acute pancreatitis (1, 2, 4, 7). We will refer to this technique as “intraductal infusion”. We compared the severity of pancreatic damage and survival of rats after intraductal infusion of Glyceryl trilinoleate with and without the lipase inhibitor orlistat. In addition, we used a different lipase inhibitor-cetilistat (3, 6), and studied its efficacy in improving survival of rats in intraductal infusion pancreatitis induced with Glyceryl trilinoleate (GTL).
Male Wistar rats (250-350 gm), were anesthetized. Intraductal infusion of 0.1 ml (n=5) or 0.2 ml (n=5) of GTL (Sigma-Aldrich corporation) alone or GTL+orlistat (Caymen chemical, Ann Arbor, Mich.) (75 mg/ml, 0.1 ml n=5 or 0.2 ml n=5) or GTL+cetilistat (Jinan Wedo Industrial Co., Ltd., Jinan City, Shandong China) (25 mg/ml, 0.2 ml, n=10) was done as described previously (1, 2, 4, 7). All animals were given pain control (buprenorphine 200 mcg/kg BID), Cefazolin (100 mg/kg), and 10 cc saline subcutaneously BID as per the IACUC protocol. These were followed for survival.

[5] = test system: adipocytes; assay: Isoproterenol-stimulated glycerol release in adipocyte culture; type: cell-based
[6] = orlistat 50 μM, acini co-cultured with adipocytes
[7] = orlistat 50 mg/kg every 12 hours
[8] = in combination with GTL, at necropsy

For `CCCCCCCCCCC[C@@H](C[C@@H]1OC(=O)[C@H]1CCCCCC)OC(=O)[C@H](CC(C)C)NC=O` [orlistat], the “apoptosis, cell growth and lymph node metastasis” value [1] is listed as “promote apoptosis and reduce cell grown and lymph node metastasis”, the “amylase secretory response to caerulein after co-culture” value ([2]; 50 μM orlistat, basal, 100 pM and 100 nM caerulein) is listed as “amylase secretory pattern like control acini” and the “resistin levels in the medium” value ([2]; 50 μM orlistat, co-culture) is listed as “prevents increase in resistin”. For the same molecule, the “acinar cell viability and function” value [2, 6] was “restored acinar cell viability and function to control levels”, the “co-culture induced acinar cell changes (necrosis: propidium iodide positivity, drop in ATP levels, cytochrome c leakage; NEFA and resistin increase in medium)” value [2, 6] was “completely prevented” and the “serum amylase and lipase levels” value ([3]; compared with IL or IL+Veh groups) was “significantly reduced”. The “lung injury (apoptotic cells, lung MPO levels)” value [3, 7] was “significantly reduced”, the mortality [3, 7] was “significantly reduced” and the “renal end organ damage (BUN, tubular vacuoles, oil red O, TUNEL, mitochondrial swelling, saponification)” value [3, 7] was “normalized”. For the same molecule, the “serum UFA levels” value [3, 7] was “significantly reduced”, the “serum resistin, TNF-α, MCP-1 and IL-6” value [3, 7] was “normalized” and the “pancreatic changes: fat necrosis, saponification, peri-fat acinar necrosis, acinar necrosis, hypocalcemia (gross, histologic, biochemical)” value [3] was “prevents saponification”. For the same molecule, the “pancreatic changes: fat necrosis, saponification, peri-fat acinar necrosis, acinar necrosis, hypocalcemia (gross, histologic, biochemical)” value ([3]; listed as Orlistat) was “significantly blocked”, the “renal end organ damage (BUN, tubular vacuoles, oil red O, TUNEL, mitochondrial swelling, saponification)” value ([3]; orlistat 50 mg/kg every 12 hours, listed as Orlistat) was “reduces these” and the “serum SFA levels” value [3] was “not significantly reduced”. For the same molecule, the “serum SFA levels” value ([3]; listed as Orlistat) was “did not significantly reduce”, the mortality ([4]; dead/total, intraductal GTL alone, GTL+orlistat 75 mg/ml, GTL+cetilistat 25 mg/ml, followed to day 5) was 0/10 and the “lung injury (TUNEL positive nuclei)” value [4, 8] was “absence of TUNEL positive nuclei”. The “renal injury (TUNEL positive nuclei)” value [4, 8] was “nearly completely prevented”, the “lung injury (TUNEL positive nuclei)” value ([4]; in combination with GTL, at necropsy, listed as Orlistat) was “nearly completely prevented” and the “gross pancreatic appearance: hemorrhages and necrosis” value ([4]; intraductal GTL with or without lipase inhibitor) was “prevented the hemorrhages and necrosis up to 5 days”. The “10 μM isoprotrenol stimulated increase in glycerol levels” value ([5]; 50 μM orlistat, 1 hour adipocyte culture) was “not significantly prevented” and the “permeability through cell membranes” value ([5]; inferred from glycerol release experiment) was “limited permeability; also recorded: low permeability”.
